Measured values reported in article PMC9131456, “Structure-Based Discovery of Lipoteichoic Acid Synthase Inhibitors” (Journal of Chemical Information and Modeling, 2022).

Experiments:
eLtaS = target: T1, eLtaS (Staphylococcus aureus, UniProt Q2G093); assay: Differential scanning fluorimetry (DSF) of eLtaS; format: binding, S. aureus
T1 construct: LtaS is a transmembrane protein with a large extracellular catalytic domain (denoted as eLtaS); His-tag; made in house; host or cells: E. coli (Rosetta; plasmid pProEX-eLtaS from strain ANG571)
Experimental: DSF assays were performed on eLtaS using the CFX Connect RT-PCR system (Bio-rad) using the protocol described previously.[43] Solutions containing 5 μM eLtaS protein in DSF buffer (25 mM Trizma-HCl, pH 7.5, 100 mM NaCl, 10% glycerol, 1 mM EDTA, 20× SYPRO Orange) with compounds at the appropriate concentrations were dispensed onto 96-well PCR plates in triplicate. The plates were sealed with Microseal “B” PCR Plate Sealing Film (Bio-rad) prior to the DSF run. The emitted fluorescence at 568 nm was measured from 25 to 65 °C at a step ramp rate of 0.5 °C every 30 s. Prism GraphPad v.5 was used for curve fitting, and the melting temperature Tm for each curves was derived from the Boltzmann equation.

[1] = test system: S. aureus (strain Newman); assay: Non-lethal S. aureus lung infection mouse model; format: in vivo, BALB/c female mice; conditions: single intranasal dose of 300 μg 3 h postinfection; lungs collected 24 h postinfection; 5 × 10^7 CFU intranasal
Excerpt: All in vivo experiments were done at the University of Liverpool under the UK Animals (Scientific Procedures) Act 1986 guidelines. The protocols were approved by the UK Home Office and by the University of Liverpool Animal Welfare and Ethics Committee. Six to eight week old BALB/c female mice (Charles River, UK) were used in the study after being left to acclimatize for a minimum of 7 days prior to experimentation. Mice were intranasally infected with 5 × 10^7 CFU of the S. aureus (strain Newman) in 50 μL of sterile phosphate-buffered saline (PBS). The bacterial dose was prepared by incubating 50 μL of an overnight culture in brain heart infusion (BHI) broth (Oxoid, Thermo Fisher Scientific, UK) into 5 mL of fresh BHI. Once the culture reached an OD600 = 2–3, the bacterial numbers were adjusted to the desired dose using sterile PBS. Three hours postinfection, mice were intranasally treated with either 50 μL of sterile PBS (control) or with 300 μg of compounds 1771 and compound 4 dissolved in 50 μL of sterile PBS. The final DMSO concentration was 5%, and the PBS control also contained 5% DMSO. Mice were culled 24 h postinfection; lungs were collected, homogenized, and serially diluted to determine CFU counts.[70] Significant differences were determined using the unpaired two-tailed Student t-test (p = 0.0013).

MRSA strain COL = assay: Potentiation (checkerboard synergy) assay; format: cell-based, S. aureus
Experimental: All the compounds tested in this study were dissolved in dimethyl sulfoxide (DMSO) at an initial stock concentration of 20 mM and stored at −20 °C. These compounds were tested for their antimicrobial activity using the microdilution broth method[66] following the protocol described by Richter et al.[30] Briefly, overnight cultures of S. aureus (strain Newman) grown at 37 °C in cation-adjusted Mueller Hinton II (MH2) broth were adjusted to an OD600nm of 0.6 before back-diluted with a factor of 1:2000 with the same broth. After that, 200 μL of the diluted bacterial culture were dispensed into each well of 96-well plates supplemented with the compounds to the desired concentrations. The plates were then sealed with a moisture membrane barrier and incubated statically for 20 h at 37 °C. After that, the OD600nm values of the cultures in each well were measured using a CLARIOstar microplate reader (BMG Labtech). The procedures for the potentiation assays were by large the same as described above with some variations. In such assays, MRSA strain COL was grown in the 96-well plates supplemented with different concentrations of compound 9 with methicillin, carbenicillin, or polymyxin B in a checkerboard format. Their synergistic effects were quantified by OD600nm measurements using a CLARIOstar microplate reader (BMG Labtech).

[2] = test system: S aureus (strain Newman) biofilm; assay: Biofilm assay (crystal violet); format: cell-based; conditions: 20 h, compound tested at 50, 25 and 12.5 μM
Experimental: Biofilm assays were carried out on 96-well flat-bottom plates using the protocol described by […] et al.[48] Briefly, S aureus (strain Newman) was grown statically in 96-well plates at 37 °C in Tryptic soy broth supplemented with 0.5% glucose. Each well was additionally supplemented with either DMSO or compound 9 to concentrations of 50, 25, and 12.5 μM. After 20 h, the bacterial cultures from the plates were removed, and each well was rinsed with 150 μL of sterilized distilled water thrice. The plates were then incubated for 1 h at 60 °C. After that, the biofilm in each well was stained with 0.05% (w/v) of crystal violet solution using the protocol described by O'Toole.[67] Finally, the stained biofilms were solubilized with 30% acetic acid and quantified at OD600nm using the BMG Labtech CLARIOstar microplate reader.

[3] = test system: S. aureus (strain Newman); assay: Thin-section TEM ultrastructure analysis; format: cell-based; conditions: 5 μM compound 4 or 100 μM compound 9
Experimental: The TEM imaging protocol was adapted from Garufi et al.[68]S. aureus (strain Newman) was grown in 20 mL of MH2 broth with either DMSO, 5 μM of compound 4 or 100 μM of compound 9 at 37 °C. When the control culture had reached an OD600nm ∼ 1, the cells were pelleted at 1520g and submitted to the Cambridge Advanced Imaging Centre for preimaging processing. Briefly, the cells were washed with water and fixed with 2% glutaraldehyde-4% paraformaldehyde in 0.1 M sodium cacodylate buffer (pH 7.2) for 2 h. After fixation, the cells were stained, dehydrated, and embedded in Spurr resin. The resin was cut into thin sections and viewed using a Tecnai G2 Transmission Electron Microscope at 200 kV with a bottom-mounted AMT CCD digital camera.

[4] = MRSA strain COL, compound 9 at subinhibitory 12.5 μM, checkerboard

T1 sequence (Q2G093 218-646): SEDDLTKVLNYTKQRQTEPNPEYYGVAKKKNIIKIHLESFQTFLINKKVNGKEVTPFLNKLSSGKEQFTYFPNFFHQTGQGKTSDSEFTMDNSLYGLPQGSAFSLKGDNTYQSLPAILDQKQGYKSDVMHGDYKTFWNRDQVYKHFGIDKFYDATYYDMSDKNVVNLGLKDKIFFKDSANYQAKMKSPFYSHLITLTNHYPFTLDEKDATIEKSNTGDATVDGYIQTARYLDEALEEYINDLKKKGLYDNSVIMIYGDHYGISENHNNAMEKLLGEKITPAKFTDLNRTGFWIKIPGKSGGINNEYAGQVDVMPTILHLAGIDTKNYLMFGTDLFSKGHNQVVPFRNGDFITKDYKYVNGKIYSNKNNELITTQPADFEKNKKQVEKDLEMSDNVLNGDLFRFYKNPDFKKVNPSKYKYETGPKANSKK

Compound	shift of the melting temperature of eLtaS (eLtaS; DSF, 5 μM eLtaS, across the range of concentrations tested)	reduction in recoverable colonies from the lungs [1] [log]	direct binding to eLtaS (eLtaS; using ITC and DSF, DSF at 100 μM compound)	reduction of the minimum inhibitory concentration of carbenicillin (MRSA strain COL; [4]) [fold]	reduction of the minimum inhibitory concentration of methicillin (MRSA strain COL; [4]) [fold]	increase in sensitivity toward polymyxin B (MRSA strain COL; MRSA strain treated with compound 9, checkerboard) [fold]	reduction in biofilm attachment [2] [%]	ultrastructure of treated S. aureus (TEM) [3]
O=C(COC(=O)c1cn(-c2ccccc2)nc1-c1cccs1)Nc1nnc(-c2ccccc2)o1 [Compound 4]	shifted the melting temperature of eLtaS more so than 1771	2	–	–	–	–	–	–
S=C(Nc1ccc(Cl)cc1)Nc1ccc(Sc2nc3ccccc3[nH]2)cc1 [Compound 9]	–	–	binds directly to eLtaS	32	16	4	50	swollen S. aureus cells with a thickened peptidoglycan layer and cell division defects
